Reference: patent US7135182B2, “Inhibition of transglutaminase-mediated microbial interaction with a mammalian host” (priority 1998, dated 2006)

Columns and labels:
[1] = biological target: T1, guinea pig liver transglutaminase (UniProt P08587); assay: Fluorescence assay of transglutaminase-catalyzed cross-linking of 5-(biotinamido)pentylamine to C. albicans germ tube surfaces; type: biochemical; settings: C. albicans SC5314 germ tubes; EGTA 20 mM (FIG. 2B)
T1 construct: guinea pig liver transglutaminase (8.5 μg); from tissue; host or cells: guinea pig liver
T1 sequence (P08587 whole entry): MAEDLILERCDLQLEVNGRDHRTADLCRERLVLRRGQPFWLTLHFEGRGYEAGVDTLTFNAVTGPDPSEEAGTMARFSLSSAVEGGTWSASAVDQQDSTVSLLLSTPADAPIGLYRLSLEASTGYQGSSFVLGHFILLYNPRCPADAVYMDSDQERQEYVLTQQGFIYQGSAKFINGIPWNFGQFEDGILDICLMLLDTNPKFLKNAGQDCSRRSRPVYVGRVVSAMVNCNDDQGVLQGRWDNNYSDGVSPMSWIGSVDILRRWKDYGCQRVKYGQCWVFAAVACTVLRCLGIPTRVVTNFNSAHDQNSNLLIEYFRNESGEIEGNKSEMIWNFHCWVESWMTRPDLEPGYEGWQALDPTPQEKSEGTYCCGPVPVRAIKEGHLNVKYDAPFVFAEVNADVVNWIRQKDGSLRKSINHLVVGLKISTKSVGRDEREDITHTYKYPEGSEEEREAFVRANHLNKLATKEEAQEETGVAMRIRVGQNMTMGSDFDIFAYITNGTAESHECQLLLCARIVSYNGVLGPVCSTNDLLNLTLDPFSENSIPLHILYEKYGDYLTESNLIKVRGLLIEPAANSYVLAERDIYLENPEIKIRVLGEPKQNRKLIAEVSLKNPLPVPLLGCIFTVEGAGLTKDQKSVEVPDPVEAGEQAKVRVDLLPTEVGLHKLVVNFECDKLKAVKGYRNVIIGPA
Method: To detect germ tube surface proteins serving as glutamine donors in transglutaminase-catalyzed cross-linking reactions, a fluorescence assay using a biotinylated lysine analogue as the primary amine acceptor and liver transglutaminase was developed.
Washed M199-germinated C. albicans cells (10^8/ml), guinea pig liver transglutaminase (8.5 μg), and 5-(biotinamido)pentylamine (30 μM) (Pierce) were incubated in reaction buffer 1 (400 μl) (100 mM Tris-Cl pH 7.5, 5 mM CaCl2, 1 mM DTT, 2 mM EDTA) for 15 minutes at 37° C. Reactions were stopped with EDTA (10 mM), germ tubes were washed with distilled water, spotted onto microscope slides, air dried, incubated with avidin-FITC (1:100) (Zymed) and BSA-rhodamine (1:30) (Difco) in PBS at 37° C., washed and examined by fluorescence microscopy.

[2] = tested on: adhesion of C. albicans germ tubes (UnoPP-1) to human buccal epithelial cells (BECs); assay: Stabilized (covalent) adhesion of radiolabeled C. albicans germ tubes to human buccal epithelial cells; type: cell-based, Candida albicans
Method: Mass conversion of yeasts, radiolabeled with Tran^35S-label (ICN) (5 μCi/ml), to germ tubes (5×10^6/ml) was induced in prewarmed M199 (40 ml) for 2.5 hours at 37° C. No differences in the proportion of (>95%) germ tubes or in germ tube length were seen among strains. Washed germ tubes and BECs from a healthy donor, suspended in 300 μl of reaction buffer 3 (50 mM Tris-Cl pH 7.5, 10 mM CaCl2, 1 mM EDTA, 1 mM DTT), at a germ tube/BEC ratio of 100:1, were mixed, incubated for 1 hour at 37° C. followed by reaction termination with 100 mM EGTA (75 μl). The BEC donors understood the nature of the studies and consented to provide BECs. Radioactivity of BEC fractions was determined by scintillation counting after centrifugation on 50% Percoll gradients, and germ tubes per BEC was determined using the specific activity of each strain. Background counts, determined from gradients with germ tubes only, were less than 6% of counts for germ tube/BEC mixtures and were subtracted from counts of epithelial cell-germ tube mixtures. […]
Radiolabeled germ tubes of the control strain, UnoPP-1, were incubated with BECs at a ratio of 100:1 with or without 5 or 10 mM monodansylcadaverine in reaction buffer 3, supra. […] The cell mixtures were incubated for 1 hour at 37° C., and the number of germ tubes covalently attached to BECs were determined. […]

Row | Structure (SMILES) | effect on transglutaminase-mediated fluorescence labelling of germ tubes [1] | stabilized adhesion of UnoPP-1 to BECs with transglutaminase inhibited ([2]; iodoacetamide 10 mM, BECs pretreated 15 minutes, CAH7-1A was 23% of UnoPP-1) | reduction of adhesion of germ tubes to BEC relative to DMSO control ([2]; 5 or 10 mM, UnoPP-1 germ tubes/BEC 100:1, 1 hour at 37° C., covalently attached germ tubes)
1 | O=C(O)CN(CCOCCOCCN(CC(=O)O)CC(=O)O)CC(=O)O [EGTA] | inhibited | – | –
2 | NC(=O)CI [iodoacetamide] | inhibited | low level of stabilized adhesion of CAH7-1A was equivalent to that of UnoPP-1 | –
3 | CN(C)c1cccc2c(S(=O)(=O)NCCCCCN)cccc12 [monodansylcadaverine] | – | – | approximately 87%
